Experimental data as given in patent publication US20260035359A1, “HERBICIDAL IMIDAZOLE COMPOUNDS” (SYNGENTA CROP PROTECTION AG, priority 2022, published 2026).

Assays:
Type in all cases: in vivo
[1] = system: Amaranthus pa/meri (AMAPA); assay: Post-emergence herbicidal glasshouse test; details: 250 g/ha, sprayed after 8 days cultivation, evaluated after 13 days
Protocol: (§1) Seeds of a variety of test species are sown in standard soil in pots Amaranthus pa/meri (AMAPA), Amaranthus retoflexus (AMARE), Echinochloa crus-gali (ECHCG), Ipomoea hederacea (IPOHE), Setaria faberi (SETFA). After cultivation for one day (pre-emergence) or after 8 days cultivation (post-emergence) under controlled conditions in a glasshouse (at 24/16° C., day/night; 14 hours light; 65% humidity), the plants are sprayed with an aqueous spray solution derived from the formulation of the technical active ingredient in acetone/water (50:50) solution containing 0.5% Tween 20 (polyoxyethelyene sorbitan monolaurate, CAS RN 9005-64-5). Compounds are applied at 250 g/ha unless otherwise stated. The test plants are then grown in a glasshouse under controlled conditions in a glasshouse (at 24/16° C., day/night; 14 hours light; 65% humidity) and watered twice daily. After 13 days for pre and post-emergence, the test is evaluated for the percentage damage caused to the plant. The biological activities are shown in the following table on a five-point scale (5=81-100%; 4=61-80%; 3=41-60%; 2=21-40%; 1=0-20%).

[2] = system: Ipomoea hederacea (IPOHE); assay: Post-emergence herbicidal glasshouse test; details: 250 g/ha, sprayed after 8 days cultivation, evaluated after 13 days
Protocol: as §1

[3] = system: Amaranthus retoflexus (AMARE); assay: Post-emergence herbicidal glasshouse test; details: 250 g/ha, sprayed after 8 days cultivation, evaluated after 13 days
Protocol: as §1

[4] = system: Echinochloa crus-gali (ECHCG); assay: Post-emergence herbicidal glasshouse test; details: 250 g/ha, sprayed after 8 days cultivation, evaluated after 13 days
Protocol: as §1

[5] = system: Amaranthus pa/meri (AMAPA); assay: Pre-emergence herbicidal glasshouse test; details: 250 g/ha, sprayed after one day cultivation, evaluated after 13 days
Protocol: as §1

[6] = system: Ipomoea hederacea (IPOHE); assay: Pre-emergence herbicidal glasshouse test; details: 250 g/ha, sprayed after one day cultivation, evaluated after 13 days
Protocol: as §1

[7] = system: Amaranthus retoflexus (AMARE); assay: Pre-emergence herbicidal glasshouse test; details: 250 g/ha, sprayed after one day cultivation, evaluated after 13 days
Protocol: as §1

[8] = system: Echinochloa crus-gali (ECHCG); assay: Pre-emergence herbicidal glasshouse test; details: 250 g/ha, sprayed after one day cultivation, evaluated after 13 days
Protocol: as §1

| SMILES | percentage damage caused to the plant, AMAPA [1] | percentage damage caused to the plant, IPOHE [2] | percentage damage caused to the plant, AMARE [3] | percentage damage caused to the plant, ECHCG [4] | percentage damage caused to the plant, AMAPA [5] | percentage damage caused to the plant, IPOHE [6] | percentage damage caused to the plant, AMARE [7] | percentage damage caused to the plant, ECHCG [8] |
| --- | --- | --- | --- | --- | --- | --- | --- | --- |
| CCCCCc1nc(C(F)(F)F)cn1Cc1ncc(C#N)cn1 [Compound 1.015] | 1 (1=0-20%) | 3 (3=41-60%) | 2 (2=21-40%) | 1 (1=0-20%) | 4 (4=61-80%) | 2 (2=21-40%) | 4 (4=61-80%) | 1 (1=0-20%) |
| O=S(=O)(CCC(F)(F)F)c1nc(C(F)F)cn1Cc1ncc(Cl)cn1 [Compound 1.009] | 1 (1=0-20%) | 1 (1=0-20%) | 1 (1=0-20%) | 1 (1=0-20%) | 1 (1=0-20%) | 2 (2=21-40%) | 1 (1=0-20%) | 1 (1=0-20%) |
| C#CCON=CCCc1nc(C(F)(F)F)cn1Cc1ncc(Cl)cn1 (single isomer, unassigned) [Compound 1.028] | 4 (4=61-80%) | 2 (2=21-40%) | 5 (5=81-100%) | 2 (2=21-40%) | 5 (5=81-100%) | 4 (4=61-80%) | 5 (5=81-100%) | 1 (1=0-20%) |
| COCCc1nc(C(F)(F)F)cn1Cc1ncc(Cl)cn1 [Compound 1.018] | 2 (2=21-40%) | 3 (3=41-60%) | 2 (2=21-40%) | 1 (1=0-20%) | 4 (4=61-80%) | 4 (4=61-80%) | 5 (5=81-100%) | 1 (1=0-20%) |
| FC(F)(F)c1cn(Cc2ncc(Cl)cn2)c(CC2CCOCC2)n1 [Compound 1.075] | 4 (4=61-80%) | 4 (4=61-80%) | 4 (4=61-80%) | 4 (4=61-80%) | 5 (5=81-100%) | 5 (5=81-100%) | 5 (5=81-100%) | 4 (4=61-80%) |
| CCCCc1nc(I)cn1Cc1ncc(Cl)cn1 [Compound 1.079] | 1 (1=0-20%) | 1 (1=0-20%) | 1 (1=0-20%) | 1 (1=0-20%) | 1 (1=0-20%) |  | 1 (1=0-20%) | 1 (1=0-20%) |
| CCCCc1nc(C(F)(F)F)cn1Cc1ccc(C#N)cn1 [Compound 1.056] | 2 (2=21-40%) | 2 (2=21-40%) | 2 (2=21-40%) | 1 (1=0-20%) | 4 (4=61-80%) | 2 (2=21-40%) | 4 (4=61-80%) | 1 (1=0-20%) |
| FC(F)(F)c1cn(Cc2ncc(Cl)cn2)c(CC2CCOC2)n1 (stereo not drawn) [Compound 1.074] | 4 (4=61-80%) | 4 (4=61-80%) | 4 (4=61-80%) | 3 (3=41-60%) | 5 (5=81-100%) | 5 (5=81-100%) | 5 (5=81-100%) | 3 (3=41-60%) |
| CCCCc1nc(I)c(I)n1Cc1ncc(Cl)cn1 [Compound 1.078] | 2 (2=21-40%) | 1 (1=0-20%) | 2 (2=21-40%) | 1 (1=0-20%) | 1 (1=0-20%) | 1 (1=0-20%) | 1 (1=0-20%) | 1 (1=0-20%) |
| CCCCc1nc(C(F)(F)F)cn1Cc1ccc(Cl)cn1 [Compound 1.057] | 2 (2=21-40%) | 2 (2=21-40%) | 3 (3=41-60%) | 1 (1=0-20%) | 5 (5=81-100%) | 1 (1=0-20%) | 3 (3=41-60%) | 1 (1=0-20%) |
| FC(F)c1cn(Cc2ncc(Cl)cn2)c(SCCC(F)(F)F)n1 [Compound 1.012] | 1 (1=0-20%) | 2 (2=21-40%) | 1 (1=0-20%) | 1 (1=0-20%) | 1 (1=0-20%) | 1 (1=0-20%) | 1 (1=0-20%) | 1 (1=0-20%) |
| CON=CCCc1nc(C(F)(F)F)cn1Cc1ncc(Cl)cn1 (single isomer, unassigned) [Compound 1.007, 3-[1-[(5-chloropyrimidin-2-yl)methyl]-4-(trifluoromethyl)-imidazol-2-yl]-N-methoxy-propan-1-imine] | 4 (4=61-80%) | 3 (3=41-60%) | 4 (4=61-80%) | 1 (1=0-20%) | 5 (5=81-100%) | 5 (5=81-100%) | 5 (5=81-100%) | 2 (2=21-40%) |
| FC(F)CCc1nc(C(F)(F)F)cn1Cc1ncc(Cl)cn1 [Compound 1.010, 5-chloro-2-[[2-(3,3-difluoropropyl)-4-(trifluoromethyl)-imidazol-1-yl]methyl]-pyrimidine] | 4 (4=61-80%) | 4 (4=61-80%) | 4 (4=61-80%) | 4 (4=61-80%) | 5 (5=81-100%) | 5 (5=81-100%) | 5 (5=81-100%) | 4 (4=61-80%) |
| CCCCc1nc(C(F)(F)F)cn1Cc1ccc(Cl)cn1 [Compound 1.055] | 1 (1=0-20%) | 1 (1=0-20%) | 1 (1=0-20%) | 1 (1=0-20%) | 1 (1=0-20%) | 3 (3=41-60%) | 1 (1=0-20%) | 1 (1=0-20%) |
| FC(F)COCCc1nc(C(F)(F)F)cn1Cc1ncc(Cl)cn1 [Compound 1.017] | 4 (4=61-80%) | 4 (4=61-80%) | 4 (4=61-80%) | 3 (3=41-60%) | 5 (5=81-100%) | 5 (5=81-100%) | 5 (5=81-100%) | 5 (5=81-100%) |
| CCCc1nc(C(F)(F)F)cn1Cc1ncc(Cl)cn1 [Compound 1.042] | 3 (3=41-60%) | 3 (3=41-60%) | 3 (3=41-60%) | 1 (1=0-20%) | 4 (4=61-80%) | 4 (4=61-80%) | 4 (4=61-80%) | 1 (1=0-20%) |
| CCCCc1nc(C(F)F)cn1Cc1ncc(Cl)cn1 [Compound 1.053, 2-[[2-butyl-4-(difluoromethyl)imidazol-1-yl]methyl]-5-chloro-pyrimidine] | 1 (1=0-20%) | 1 (1=0-20%) | 1 (1=0-20%) | 1 (1=0-20%) | 1 (1=0-20%) | 1 (1=0-20%) | 1 (1=0-20%) | 1 (1=0-20%) |
